Ends that are not written are not given here. Peptide text beside a SMILES is read from it.
Experiments:
NP-1 = NP-1 (Homo sapiens, UniProt O14786); type: binding; parameters: the NP-1 cDNA used for these experiments would only produce the full-length receptor; expressed in transfected cells; host or cells: COS-1
Procedure: (§1) When co-expressing VEGFR-2 and NP-1, 5 μg of VEGFR-2 cDNA and 2 μg of NP-1 cDNA are used. When the receptors are expressed in isolation, for VEGFR-2, 5 μg of VEGFR-2 cDNA and 2 μg of mock vector cDNA are used.
(§2) After generation of the liposome/DNA solution, the cells are rinsed one time with 5 ml Optimem I, then replaced with another 5 ml of Optimem I containing the liposome/DNA solution. The cells are incubated for two to four hours at 37° C., 5% CO2, then 5 ml of COS-1 cell growth medium is applied and the transfection is allowed to proceed overnight. The following day, cells are trypsinized (0.2% trypsin, 1 mM EDTA, Gibco-BRL), and cells containing common transfectants are pooled. […] The cells are then used for corresponding VEGFR-2/NP-1 complex formation and peptide blocking studies.
(§3) Cells are plated the day before experimentation at 200,000 cells per well in twelve well tissue culture plates (VWR) in 1 ml of growth medium specific for each cell type. On the day of experimentation, the cells were pre-equilibrated at 4° C. for 30 to 60 minutes in binding buffer (0.2% BSA, Sigma; 25 mM Hepes, Gibco; MEM, Gibco). […] The binding reaction is allowed to reach equilibrium for four hours at 4° C. with gentle agitation.
(§4) Unbound ligand is then removed by quickly washing three times with 5 ml ice cold BSA-free binding buffer (MEM, Gibco, 25 mM Hepes, Gibco). Cells are lysed by the addition of 250 μl of RIPS Buffer (previously described), and the lysed cells are transferred to 12×75 mm test tubes and counted using a gamma counter. Generation of competition curves and IC50 values are performed using the Prism software package (Graphpad Software Inc., San Diego, Calif.).

VEGFR-2/NP-1 = tested on: T1, VEGFR-2/NP-1; type: binding, human
T1 construct: In the COS-1 cells overexpressing the full-length VEGFR-2; the NP-1 cDNA used for these experiments would only produce the full-length receptor; expressed in transfected cells; host or cells: COS-1
Procedure: as §1, §2, §3, §4

[1] = tested on: VEGF165 vascular growth response; test: Mouse corneal pocket model; type: in vivo; parameters: key to Score #1 (subjective neovascular response score) / Score #2 (subjective neovascular response score) / Score #3 (subjective neovascular response score): subjective neovascular growth score, 0 to 6 scale
Procedure: A 0.2 μl aliquot of this solution yielded a 4 μg dose. Human recombinant VEGF165 was purchased from R&D Systems (Minneapolis, Minn.), supplied in a lyophilized, carrier free form and reconstituted in the same water as the above peptide. A 0.2 μl aliquot of this solution yielded a 300 ng dose.
Male albino mice (Crl: CD-I (ICR) BR, VAF) from Charles River (Portage, N.C.), 20–24 grams were used. […] Compound adsorbed pellets were fabricated and implanted as described below. The treated eye was imaged on the day of implantation (day 0) and on days 4 and 7 following surgery. The growth response was subjectively graded on a scale from 0 to 6 by three independent graders blinded from the treatment grouping labels using the 3× printed image.
Polyvinyl alcohol (PVA) matrix material (Rippey, El Dorado Hills, Calif.) was cut into 1 cm×3 cm pieces and placed in a vibratome for sectioning on edge to produce 300 μm thick strips. The strips were individually sterilized by exposure to ethylene oxide. A strip was then cut under a dissecting microscope into approximately 300 μm cubes. The desired concentration of test compound or vehicle was adsorbed, sometimes utilizing a micro dessicant chamber. An HP auto sampler micro-syringe (Hamilton, P/N 7000.5) controlled the exact volume of the agent adsorbed onto the sponge. The sponge was then placed on a microscope slide prepared with a coating (20 μl spread over a 0.75 mm×1.5 mm area) of 12% hydron (Sigma, St. Louis, Mo.). The slide was protected in a clean petri dish and placed into a dessicator at 4° C. for a few hours or overnight. The dry, adsorbed sponges were mechanically flattened and overlaid with another aliquot of 12% hydron and again placed into a dessicator to cure the hydron coating. Fabrication of the adsorbed PVA sponge-hydron sandwich (referred to as a pellet) was done no more than 48 hours prior to implantation and the pellets were stored at 4° C. On the day of surgery and just prior to implantation, the pellet was trimmed so that the sponge remained encased by hydron (approximately 400 μm×400 μm×50 μm) and could be carefully removed from the slide.
Mice were anesthetized with 0.05 cc of Ketamine (140 mg/kg) and 0.03 cc Xylazine (17 mg/kg). A surgical plane of anesthesia was maintained by subsequent administration of half doses of the above compounds as needed. The whiskers on the animal's right side were trimmed down to ¼ of an inch. The right eye was bathed in an ophthalmic local anesthetic solution (Ophthaine, 0.5% tetracine hydrochloride) initially and throughout the procedure. The animal was placed on its side and the skin around the eye was gently retracted to expose the lateral and apical aspects of the cornea. The lateral limbic artery bifurcation was positioned horizontally. While stabilizing the eye against the ocular orbit, a vertical incision was made using a micro scalpel into the corneal tissue just lateral to the pupil. Care was taken to prevent accidental perforation of the anterior eye chamber. The incision depth was carefully deepened until a delicate and small lateral stab could be made (on axis with the lateral limbic artery bifurcation) with the micro scalpel into the middle of the corneal stroma. This lateral, intrastromal incision was enlarged by blunt dissection with very fine forceps until a pocket was formed from the vertical incision toward the limbus.
A hydron coated PVA sponge with adsorbed test compound (pellet) was prepared for implantation by carefully excising and removing it from the microscope slide. The pellet was introduced gently into the corneal pocket and advanced to within 1–2 mm of the limbus. The edges of the vertical corneal incision were approximated to encourage rapid healing. The imaging procedure (described below) was used to document the native limbic vascular architecture at the time of implantation. Post surgical recovery of the animal consisted of triple antibiotic ophthalmic ointment to prevent corneal drying, abrasion and infection. […]

Sequence of NP-1 (O14786 22-923): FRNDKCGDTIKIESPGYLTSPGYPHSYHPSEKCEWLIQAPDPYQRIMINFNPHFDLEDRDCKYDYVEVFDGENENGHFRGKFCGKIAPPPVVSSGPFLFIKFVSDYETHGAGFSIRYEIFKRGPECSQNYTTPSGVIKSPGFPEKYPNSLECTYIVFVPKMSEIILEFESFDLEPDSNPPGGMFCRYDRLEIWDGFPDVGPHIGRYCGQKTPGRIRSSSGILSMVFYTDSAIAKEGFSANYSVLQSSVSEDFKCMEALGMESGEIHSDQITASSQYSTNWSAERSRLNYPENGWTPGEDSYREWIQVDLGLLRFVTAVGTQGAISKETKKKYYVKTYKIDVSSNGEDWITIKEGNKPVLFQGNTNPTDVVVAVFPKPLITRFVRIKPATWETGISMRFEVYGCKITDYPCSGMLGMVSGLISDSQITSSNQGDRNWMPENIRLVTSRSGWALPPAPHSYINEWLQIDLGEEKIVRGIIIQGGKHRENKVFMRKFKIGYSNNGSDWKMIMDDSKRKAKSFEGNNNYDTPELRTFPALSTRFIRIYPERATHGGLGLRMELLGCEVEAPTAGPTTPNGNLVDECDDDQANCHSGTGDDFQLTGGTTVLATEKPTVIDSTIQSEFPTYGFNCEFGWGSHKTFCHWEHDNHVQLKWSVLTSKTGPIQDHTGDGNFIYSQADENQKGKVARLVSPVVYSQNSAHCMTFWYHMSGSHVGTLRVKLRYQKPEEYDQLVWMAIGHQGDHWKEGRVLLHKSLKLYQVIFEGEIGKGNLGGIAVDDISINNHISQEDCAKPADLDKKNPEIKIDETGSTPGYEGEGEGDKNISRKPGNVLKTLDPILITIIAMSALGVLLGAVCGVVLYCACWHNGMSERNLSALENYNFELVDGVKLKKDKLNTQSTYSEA

| Compound | Relative Affinity to Lead Peptide (RALP), NP-1 (NP-1) | Relative Affinity to Lead Peptide (RALP), VEGFR-2/NP-1 (VEGFR-2/NP-1) | also measured |
| --- | --- | --- | --- |
| H-RRPKGRGKRRREKQRPSDAAAR-OH [AS-5] | 1.6 | 0.71 | – |
| H-KGAGKARREKQRPSDKPRR-OH [P6V8-3NCSA3A6] | 48.8 | 8.20 | – |
| H-KGRGARRREKQRPSDKPRR-OH [Peptide P6V8-3NCSA5] | – | 1.45 | – |
| H-AGRGKARREKQRPSDKPRR-OH [P6V8-3NCSA1A6] | 2.30 | 0.93 | – |
| H-KGRGKRAAEKQAPSDKPRR-OH [P6V8-3NCSA7,8, 12] | 1.91 | – | – |
| H-KGRGKRAAEAQRPSDKPRR-OH [P6V8-3NCSA7,8, 10] | 14.25 | 3.27 | – |
| H-AGRGKRRREKQRPSDKPRR-OH [Peptide P6V8-3NCSA1] | 0.99 | – | – |
| H-RRPAAAGKRRREKQRPSDKPRR-OH [AS-1, RRP AAA GKR RRE KQR PSD KPR R] | 8 | 1 | – |
| RRPKGRGKRRREKQRPCDKPRR [Peptide P6V8, RRP KGR GKR RRE KQR P CDKPRR] | – | – | score of eye images by all graders ([1]; Day 7, P6V8 alone 4 μg, 0 = no change in limbic vasculature from Day 0): 0; vascular growth response to 300 ng of VEGF165 in the presence of peptide ([1]; P6V8 4 μg, mouse corneal micro pocket): attenuated; Score #1 (subjective neovascular response score) ([1]; grader 1, per animal, scale 0 to 6, pellet P6V8 4 μg and/or VEGF165 300 ng): 0; Score #2 (subjective neovascular response score) ([1]; grader 2, per animal, scale 0 to 6, pellet P6V8 4 μg and/or VEGF165 300 ng): 0; Score #3 (subjective neovascular response score) ([1]; grader 3, per animal, scale 0 to 6, pellet P6V8 4 μg and/or VEGF165 300 ng): 0 |
| H-KGAGKRRREKQRPSDKPRR-OH [Peptide P6V8-3NCSA3] | 8.8 | 0.23 | – |
| H-AGRGARAAEAQRPSDKPRR-OH [P6V8-3NCSA1,5,7,8, 10] | 67.76 | 5.22 | – |
| H-KGRGKRAAEAQAPSDAPAR-OH [P6V8-3NCSA7,8, 10, 12, 16, 18] | 72.44 | 27.540 | – |
| C[C@@H]1NC(=O)[C@@H](N)CSSC[C@@H](C(=O)N[C@@H](CCCNC(=N)N)C(=O)N[C@@H](CCC(=O)O)C(=O)N[C@@H](CCCCN)C(=O)N[C@@H](CCC(N)=O)C(=O)N[C@@H](CCCNC(=N)N)C(=O)N2CCC[C@H]2C(=O)N[C@@H](CO)C(=O)N[C@@H](CC(=O)O)C(=O)N[C@@H](CCCCN)C(=O)N2CCC[C@H]2C(=O)N[C@@H](CCCNC(=N)N)C(=O)N[C@@H](CCCNC(=N)N)C(=O)O)NC(=O)[C@H](CCCNC(=N)N)NC(=O)[C@H](CCCCN)NC(=O)CNC(=O)[C@H](CCCNC(=N)N)NC(=O)CNC1=O [P6V8-3NCS1-7CCA1] (HELM PEPTIDE1{C.A.G.R.G.K.R.C.R.E.K.Q.R.P.S.D.K.P.R.R}$PEPTIDE1,PEPTIDE1,1:R3-8:R3$$$V2.0) | – | – | Relative Affinity to Lead (RALP), NP-1 (NP-1): 14.35; Relative Affinity to Lead (RALP), VEGFR-2/NP-1 (VEGFR-2/NP-1): 1.97 |
| H-KGRGKARREKQRPSDKPRR-OH [Peptide P6V8-3NCSA6] | 2.16 | 5.10 | – |
| C[C@@H]1NC(=O)CNC(=O)[C@H](CCCNC(=N)N)NC(=O)CNC(=O)[C@H](CCCCN)NC(=O)[C@@H](N)CSSC[C@@H](C(=O)N[C@@H](CCCNC(=N)N)C(=O)N[C@@H](CCC(=O)O)C(=O)N[C@@H](CCCCN)C(=O)N[C@@H](CCC(N)=O)C(=O)N[C@@H](CCCNC(=N)N)C(=O)N2CCC[C@H]2C(=O)N[C@@H](CO)C(=O)N[C@@H](CC(=O)O)C(=O)N[C@@H](CCCCN)C(=O)N2CCC[C@H]2C(=O)N[C@@H](CCCNC(=N)N)C(=O)N[C@@H](CCCNC(=N)N)C(=O)O)NC(=O)[C@H](CCCNC(=N)N)NC1=O [P6V8-3NCS1-7CCA5] (HELM PEPTIDE1{C.K.G.R.G.A.R.C.R.E.K.Q.R.P.S.D.K.P.R.R}$PEPTIDE1,PEPTIDE1,1:R3-8:R3$$$V2.0) | – | – | Relative Affinity to Lead (RALP), NP-1 (NP-1): 1.64; Relative Affinity to Lead (RALP), VEGFR-2/NP-1 (VEGFR-2/NP-1): 1.87 |
| C[C@@H]1NC(=O)CNC(=O)[C@H](CCCNC(=N)N)NC(=O)CNC(=O)[C@H](C)NC(=O)[C@@H](N)CSSC[C@@H](C(=O)N[C@@H](CCCNC(=N)N)C(=O)N[C@@H](CCC(=O)O)C(=O)N[C@@H](CCCCN)C(=O)N[C@@H](CCC(N)=O)C(=O)N[C@@H](CCCNC(=N)N)C(=O)N2CCC[C@H]2C(=O)N[C@@H](CO)C(=O)N[C@@H](CC(=O)O)C(=O)N[C@@H](CCCCN)C(=O)N2CCC[C@H]2C(=O)N[C@@H](CCCNC(=N)N)C(=O)N[C@@H](CCCNC(=N)N)C(=O)O)NC(=O)[C@H](CCCNC(=N)N)NC1=O [P6V8-3NCS1-7CCA1A5] (HELM PEPTIDE1{C.A.G.R.G.A.R.C.R.E.K.Q.R.P.S.D.K.P.R.R}$PEPTIDE1,PEPTIDE1,1:R3-8:R3$$$V2.0) | – | – | Relative Affinity to Lead (RALP), NP-1 (NP-1): 30.76; Relative Affinity to Lead (RALP), VEGFR-2/NP-1 (VEGFR-2/NP-1): 17.33 |
| H-AGRGARRREKQRPSDKPRR-OH [P6V8-3NCSA1A5] | – | 0.71 | – |
